Series [1] has as its system L. tropica promastigotes. The series is described as follows: Leishmania promastigotes in vitro susceptibility (MTT), L. tropica. The format is cell-based. The note with it: 48 h, at least three independent assays; for IC50: read-out: Promastigotes Susceptibility IC50 ± SEM, L. tropica.
The subject of series [2] is L. infantum promastigotes. As to the kind of experiment: Leishmania promastigotes in vitro susceptibility (MTT), L. infantum. The format is cell-based. The note with it: 48 h, at least three independent assays; for IC50: read-out: Promastigotes Susceptibility IC50 ± SEM, L. infantum.
Series [3] can be described thus: In vitro cytotoxicity assessment in THP-1 cell line (MTT). The format is cell-based, human. The note with it: human, THP-1 cells, 48 h, MTT; at least three independent assays; read-out: Cytotoxicity CC50 ± SEM. The procedure:
(§1) THP-1 (ATCC® TIB-202TM) human acute monocytic leukemic cell line was obtained from DSMZ, Germany and cultured in RPMI 1640 (Sigma, Darmstadt, Germany) supplemented with 10% (v/v) FBS, 1% (v/v) penicillin-streptomycin (Sigma), and L-glutamine 200 mM (Sigma) at 37 °C, 5% CO2.
(§2) THP-1 cell line was used to calculate the endoperoxide–pyrazole hybrids’ half-maximal cytotoxic concentration (CC50). THP-1 was plated at a final density of 5 × 10^5 cells/mL, in 96-well flat bottom culture plates (VWR), using six different concentrations of the compounds (OZ1, OZ2, T1, T2 and PIR: 800, 400, 200, 100, 50, 25 µM) and amphotericin B (10, 5, 2.5, 1.25, 0.625, 0.313 µM). A blank (RPMI medium alone) and an untreated control (parasites with RPMI medium plus 1% DMSO as vehicle solution) were also included. All the compounds were plated out in quadruplicate and incubated for 48 h at 37 °C ± 1 °C, 5% CO2.
(§3) Following the incubation period, 20 µL per well of MTT was added as described in Section 3.5.2. After absorbance readings, the CC50 values of each compound were determined with GraphPad Prism V 9.0 (Dotmatics, San Diego, CA, USA) as previously described. At least three independent assays were performed.

The subject of series [4] is intracellular amastigotes of L. infantum. The series is described as follows: Intracellular amastigotes susceptibility in THP-1-derived macrophages (infection index). Type of series: cell-based, Leishmania infantum. The note with it: for IC50: 72 h, THP-1-derived macrophages, infection index, two independent assays, read-out: Intracellular Amastigote Susceptibility IC50 ± SEM, L. infantum; for SI (selectivity index): SI for amastigote forms = CC50 THP-1 / IC50 L. infantum. The procedure: The in vitro intracellular amastigote assay was performed using a THP1 cell line maintained in complete RPMI at 37 °C, 5% CO2. After 24 h differentiation of 5 × 10^5 cells/mL into macrophages in sterile 16-chamber LabTek slides (Thermo Scientific, Waltham, MA, USA) with 25 ng mL^−1 phorbol myristic acid (PMA, Sigma), cells were washed once with warm RPMI to remove non-differentiated and non-adherent cells and further infected with 5 × 10^6 promastigotes/mL in a 10:1 parasite–macrophage ratio for another 24 h. After this period, slides were gently washed once with warm RPMI to remove non-internalised promastigotes. The compounds 2o, 2t, OZ1•HCl, OZ1•MsOH, and OZ1•TsOH at concentrations ranging 400 µM to 50 µM were added, and the slides were further incubated at 37 °C, 5% CO2 for 72 h. After this period, cells were washed with warm PBS, fixed with methanol (Sigma) and stained with Giemsa 5% (Sigma). AmB was used as positive control, and macrophages cultivated in RPMI medium and DMSO (0.5% v/v) were used as negative control. The infection index was determined by multiplying the percentage of infected cells and the number of amastigotes per infected cell as previously described. The results represent the average of two experiments. The IC50 for each compound was calculated by fitting the data as a non-linear regression with variable slope using a dose–response inhibitory model in the GraphPad Prism V 8.0 (Dotmatics, San Diego, CA, USA) program.
Selectivity index (SI) was determined for each compound as the quotient between the cytotoxicity in cell lines (CC50) and the inhibitory concentration (IC50) (SI = CC50 in mammalian cells/IC50 L. infantum).

The subject of a further series is THP-1 cell line. As to the kind of experiment: In vitro cytotoxicity assessment in THP-1 cell line (MTT). The format is cell-based, human. The note with it: for selectivity (SI values): THP-1 cytotoxicity versus antileishmanial activity of free hybrids (promastigotes); for CC50: THP-1 cells, 48 h, MTT, at least three independent assays, read-out: Cytotoxicity CC50 ± SEM. The procedure: as §1, §2, §3

Series [5] deals with L. tropica promastigotes. The series is described as follows: Morphometric analysis of L. tropica promastigotes (optical microscopy, Giemsa). Type of series: cell-based, Leishmania tropica. The note with it: 48 h, OZ1 300 µM, OZ2 200 µM; for Body size of L. tropica promastigotes: amphotericin B 0.62 µM; for Morphological alterations of L. tropica promastigotes: Giemsa, 1000×. The procedure:
To detect morphological alterations, at the end of the incubation period (48 h), 30 µL of the parasite’s suspension were collected from different treatment concentrations of each compound to prepare smears on glass slides, fixed with methanol, and stained with 5% (v/v) Giemsa (Sigma). Stained slides were examined with bright field in an inverted microscope (Eclipse 80i Nikon, Tokyo, Japan) with 1000× amplification, and images were captured with a Nikon DS-Ri1 camera. Image J (version 1.53k) was used to measure promastigote body and flagellum size of at least 30 parasite samples.
Data were expressed as mean ± standard error of the mean (SEM), and statistical analysis was performed with one-way ANOVA (Bonferoni’s multiple comparisons test) to determine whether differences between means relatively to untreated control were significant at different levels (p < 0.05, p < 0.01, p < 0.001).

Setting [6] is: Leishmania infantum, Macrophage.

SMILES strings stand for the structures. Structures can show the parent of a compound that is named as a salt. Where two headings read alike, the source gives them in different places.

For `CCOC(=O)C1CCC2(CC1)OOC1(O2)C2CC3CC(C2)CC1C3` (stereo not drawn) [2o, Ethyl dispiro[cyclohexane-1,3′-[1,2,4]trioxolane-5′,2″-tricyclo[3.3.1.1^3,7]decane]-4-carboxylate], the results for the IC50 (with L. tropica promastigotes [1] (Leishmania tropica); in series [2] (Leishmania infantum); in series [4] (setting [6])) were 156 ± 18 µM, 123 ± 1 µM and 330 ± 48 µM, respectively. Moreover, the CC50 (in general, the concentration that lowers cell viability or growth by half) at 48 h in series [3] was 381 ± 172 µM. Further, the “SI (selectivity index)” value in series [4] is 1.2.
For the molecule `CCOC(=O)C1CCC2(CC1)OOC1(OO2)C2CC3CC(C2)CC1C3` (stereo not drawn) [2t, Ethyl dispiro[cyclohexane-1,3′-[1,2,4,5]tetraoxane-6′,2″-tricyclo[3.3.1.1^3,7]decane]-4-carboxylate], the IC50 (as a rule, the concentration that gives 50% inhibition) worked out at 143 ± 9 µM in the series on L. tropica promastigotes [1] (Leishmania tropica), 128 ± 27 µM in series [2] (Leishmania infantum) and 45 ± 28 µM in series [4] (setting [6]). In series [3], the CC50 at 48 h stood at 374 ± 119 µM. In addition, the “SI (selectivity index)” value in series [4] came out at 8.4.
Turning to `Nc1ccnn1C(=O)C1CCC2(CC1)OOC1(O2)C2CC3CC(C2)CC1C3` (stereo not drawn) [OZ1, (5-Amino-1H-pyrazol-1-yl)(dispiro[cyclohexane-1,3′-[1,2,4]trioxolane-5′,2″-tricyclo-[3.3.1.1^3,7]-decan]-4-yl)methanone], in the series with L. tropica promastigotes [1] (Leishmania tropica), the IC50 was found to be 219 ± 25 µM. In addition, in series [2], the “Promastigotes Susceptibility IC50 ± SEM, L. infantum” value is reported as “lack of activity” and the IC50 is > 400 µM. Besides, the CC50 at 48 h in series [3] is 664 ± 163 µM. In the series on THP-1 cell line, the “selectivity (SI values)” value is given as < 5. Besides, in the series on L. tropica promastigotes [5], the “Flagellum size of L. tropica promastigotes” value amounted to 13.561 ± 3.535 µm, the “Body size of L. tropica promastigotes” value was 5.265 ± 1.733 µm and the “Morphological alterations of L. tropica promastigotes” value is on record as “considerable damage”.
In the case of `Cl.Nc1ccnn1C(=O)C1CCC2(CC1)OOC1(O2)C2CC3CC(C2)CC1C3` (stereo not drawn) [OZ1•HCl, (5-Amino-1H-pyrazol-1-yl) (dispiro[cyclohexane-1,3′-[1,2,4]trioxolane-5′,2″-tricyclo-[3.3.1.1^3,7]-decan]-4-yl) methanone hydrochloride], the IC50 in the series with L. tropica promastigotes [1] was 135 ± 36 µM; in series [2], 164 ± 20 µM; in series [4], 87 ± 39 µM. Also, in the series with THP-1 cell line, the CC50 stood at 509 ± 155 µM. For the same molecule, the “SI (selectivity index)” value in series [4] worked out at 5.9.
For `CS(=O)(=O)O.Nc1ccnn1C(=O)C1CCC2(CC1)OOC1(O2)C2CC3CC(C2)CC1C3` (stereo not drawn) [OZ1•MsOH, (5-Amino-1H-pyrazol-1-yl) (dispiro[cyclohexane-1,3′-[1,2,4]trioxolane-5′,2″-tricyclo-[3.3.1.1^3,7]-decan]-4-yl) methanone mesylate], the IC50 with L. tropica promastigotes [1] was 198 ± 24 µM; in series [2], 183 ± 48 µM; in series [4], > 400 µM. Also, the CC50 in the series with THP-1 cell line is 336 ± 196 µM. The “SI (selectivity index)” value in series [4] is listed as <0.8.
In the case of `Nc1ccnn1C(=O)C1CCC2(CC1)OOC1(O2)C2CC3CC(C2)CC1C3` (stereo not drawn) [OZ1•TsOH, (5-Amino-1H-pyrazol-1-yl)(dispiro[cyclohexane-1,3′-[1,2,4]trioxolane-5′,2″-tricyclo-[3.3.1.1^3,7]-decan]-4-yl)methanone p-tosylate], the values for the IC50 (in the series on L. tropica promastigotes [1]; in series [2]; in series [4]) were 199 ± 9 µM, 181 ± 35 µM and 246 ± 32 µM, respectively. For the same molecule, in the series with THP-1 cell line, the CC50 was found to be 510 ± 109 µM. The “SI (selectivity index)” value in series [4] was determined as 2.1.
On to `Nc1ccn(C(=O)C2CCC3(CC2)OOC2(O3)C3CC4CC(C3)CC2C4)n1` (stereo not drawn) [OZ2, (3-Amino-1H-pyrazol-1-yl)(dispiro[cyclohexane-1,3′-[1,2,4]trioxolane-5′,2″-tricyclo[3.3.1.1^3,7]decan]-4-yl)methanone], for which the IC50 in the series on L. tropica promastigotes [1] is 161 ± 19 µM. For the same molecule, in series [2] (Leishmania infantum), the IC50 was 219 ± 44 µM. In addition, in the series with THP-1 cell line, the 50% cytotoxic concentration (CC50) is 202 ± 116 µM and the “selectivity (SI values)” value is given as < 5. In the series with L. tropica promastigotes [5], the “Flagellum size of L. tropica promastigotes” value was 12.404 ± 3.745 µm, the “Body size of L. tropica promastigotes” value is 9.646 ± 2.744 µm and the “Morphological alterations of L. tropica promastigotes” value is “considerable damage”.
`Nc1ccn(C(=O)C2CCC3(CC2)OOC2(O3)C3CC4CC(C3)CC2C4)n1` (stereo not drawn) [OZ2•HCl, (3-Amino-1H-pyrazol-1-yl) (dispiro[cyclohexane-1,3′-[1,2,4]trioxolane-5′,2″-tricyclo-[3.3.1.1^3,7]decan]-4-yl) methanone hydrochloride]: the IC50 is > 400 µM in the series with L. tropica promastigotes [1] and 258 ± 91 µM in series [2]. Further, the CC50 in the series on THP-1 cell line turned out to be 425 ± 104 µM.
`Nc1ccn(C(=O)C2CCC3(CC2)OOC2(O3)C3CC4CC(C3)CC2C4)n1` (stereo not drawn) [OZ2•TsOH, (3-Amino-1H-pyrazol-1-yl) (dispiro[cyclohexane-1,3′-[1,2,4]trioxolane-5′,2″-tricyclo-[3.3.1.1^3,7]decan]-4-yl) methanone p-tosylate]: the values for the IC50 (with L. tropica promastigotes [1]; in series [2]) were 260 ± 82 µM and 217 ± 47 µM, respectively. Also, in the series on THP-1 cell line, the CC50 came out at 479 ± 83 µM.
Turning to `Nc1cc[nH]n1` [PIR, 3-aminopyrazole, reference compound], the “Promastigotes Susceptibility IC50 ± SEM, L. tropica” value in the series on L. tropica promastigotes [1] is on record as “devoid of antileishmanial activity”. Besides, the IC50 (in the series on L. tropica promastigotes [1] (Leishmania tropica); in series [2] (Leishmania infantum)) was > 400 µM each time. Also, the “Promastigotes Susceptibility IC50 ± SEM, L. infantum” value in series [2] was “devoid of antileishmanial activity”. Also, the CC50 at 48 h in series [3] is 202 ± 10 µM.
Take `Nc1ccn(C(=O)C2CCC3(CC2)OOC2(OO3)C3CC4CC(C3)CC2C4)n1` (stereo not drawn) [T1•HCl, (3-Amino-1H-pyrazol-1-yl) (dispiro[cyclohexane-1,3′-[1,2,4,5]tetraoxane-6′,2″-tricyclo [3.3.1.1^3,7]decan]-4-yl) methanone hydrochloride]: the half-maximal inhibitory concentration (IC50) (in the series with L. tropica promastigotes [1] (Leishmania tropica); in series [2] (Leishmania infantum)) was > 400 µM in each case. In the series on THP-1 cell line, the CC50 came out at 529 ± 108 µM.
In the case of `Nc1ccnn1C(=O)C1CCC2(CC1)OOC1(OO2)C2CC3CC(C2)CC1C3` (stereo not drawn) [T1•TsOH, (5-Amino-1H-pyrazol-1-yl) (dispiro[cyclohexane-1,3′-[1,2,4,5]tetraoxane-6′,2″-tricyclo-[3.3.1.1^3,7]-decan]-4-yl) methanone p-tosylate], the IC50 (in the series on L. tropica promastigotes [1]; in series [2]) was > 400 µM throughout. The CC50 in the series on THP-1 cell line worked out at 331 ± 126 µM.
Regarding `Nc1ccn(C(=O)C2CCC3(CC2)OOC2(OO3)C3CC4CC(C3)CC2C4)n1` (stereo not drawn) [T2•HCl, (3-Amino-1H-pyrazol-1-yl) (dispiro[cyclohexane-1,3′-[1,2,4,5]tetraoxane-6′,2″-tricyclo [3.3.1.1^3,7]decan]-4-yl) methanone hydrochloride], the IC50 was 266 ± 8 µM in the series with L. tropica promastigotes [1] and 313 ± 40 µM in series [2]. Also, the CC50 in the series on THP-1 cell line is 444 ± 22 µM.
